The term IC50 denotes the point on the concentration scale where inhibition reaches its midpoint.

The results in this text go back to patent publication US20260070945A1, “MACROCYCLIC IMMUNOMODULATORS” (Bristol-Myers Squibb Company, priority 2022, published 2026).

Structures are written as SMILES. Where a SMILES comes first, the peptide text is derived from it. Bridges are numbered along the chain shown (N, C = ends). [ ]: non-standard residue; d: D form. The star is where a group is joined. Phe(4-COOH) = N[C@@H](Cc1ccc(C(=O)O)cc1)C(=O)O; Bip = N[C@@H](Cc1ccc(-c2ccccc2)cc1)C(=O)O; Phe(3-Me) = Cc1cccc(C[C@H](N)C(=O)O)c1; 3Pal = N[C@@H](Cc1cccnc1)C(=O)O; 4Pal = N[C@@H](Cc1ccncc1)C(=O)O; Cha = N[C@@H](CC1CCCCC1)C(=O)O; Carboxymethyl = O=C(O)C*; NMeA = CN[C@@H](C)C(=O)O; Orn = NCCC[C@H](N)C(=O)O; Aun = NCCCCCCCCCCC(=O)O; Dab = NCC[C@H](N)C(=O)O; Dap = NC[C@H](N)C(=O)O; AEEA = NCCOCCOCC(=O)O

T1 sequence (Q15116 25-288): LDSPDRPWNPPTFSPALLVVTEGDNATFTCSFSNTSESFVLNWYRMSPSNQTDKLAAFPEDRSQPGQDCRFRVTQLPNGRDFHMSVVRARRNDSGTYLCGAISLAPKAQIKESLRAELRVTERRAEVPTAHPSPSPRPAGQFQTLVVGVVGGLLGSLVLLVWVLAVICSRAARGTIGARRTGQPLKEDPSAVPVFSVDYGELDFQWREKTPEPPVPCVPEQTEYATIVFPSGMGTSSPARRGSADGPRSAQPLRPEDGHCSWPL

This assay addresses T1, PD-1/PD-L1 interaction (PE-labeled human PD-L1-Ig binding to Jurkat cell line over-expressing human PD-1) (Homo sapiens, UniProt Q15116).
T1 construct: expressed in transfected cells; host or cells: Jurkat
Briefly: Jurkat-PD-1 Cell Binding High-Content Screening Assay (CBA). Particulars: Jurkat-hPD-1 cells, PE-labeled PD-L1-Ig 20 nM final; read-out: Jurkat HPD1 PDL1 IC50. In short, it runs like this: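 Jurkat cells overexpressing human PD-1 (8×10^3/well, DMEM + 10% FCS) preincubated with compound 2 h at 37 °C, then PE-labelled human PD-L1-Ig (20 nM final) for 1 h. Cells fixed in paraformaldehyde with Hoechst 33342; bound PD-L1 quantified by high-content imaging.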
Consider `Cc1cccc(C[C@@H]2NC(=O)[C@H](CC(=O)O)NC(=O)[C@H](Cc3ccc(OCC(=O)O)cc3)NC(=O)[C@H](CN)NC(=O)CSC[C@@H](C(=O)NCCOCCOCC(=O)NCCCCCCCCCCC(=O)O)NC(=O)[C@H](CCCN)NC(=O)[C@H](C(C)C)NC(=O)[C@H](CC3CCCCC3)NC(=O)[C@H](CCN)NC(=O)[C@@H](CC(C)C)NC(=O)[C@H](C)N(C)C(=O)[C@H](Cc3ccc(O)cc3)NC(=O)[C@H](Cc3ccc(-c4ccccc4)cc3)NC(=O)[C@H](Cc3ccc(O)cc3)NC2=O)c1` [Example 1316] ({CH2CO}-[Dap]Y(Carboxymethyl)D[Phe(3-Me)]Y[Bip]Y[NMeA][dL][Dab][Cha]V[Orn]C[AEEA][Aun]-OH; thioether N-14), for which the IC50 is 97.7 nM.

As for `Cc1cccc(C[C@@H]2NC(=O)[C@H](CC(=O)O)NC(=O)[C@H](Cc3ccc(OCC(=O)O)cc3)NC(=O)[C@H](CN)NC(=O)CSC[C@@H](C(=O)NCCOCCOCC(=O)NCCCCCCCCCCC(=O)O)NC(=O)[C@H](CCCN)NC(=O)[C@H](C(C)C)NC(=O)[C@H](CC3CCCCC3)NC(=O)[C@H](CCN)NC(=O)[C@@H](CC(C)C)NC(=O)[C@H](C)N(C)C(=O)[C@H](Cc3ccc(O)cc3)NC(=O)[C@H](Cc3ccc(-c4ccccc4)cc3)NC(=O)[C@H](C(C)C)NC2=O)c1` [Example 1317] ({CH2CO}-[Dap]Y(Carboxymethyl)D[Phe(3-Me)]V[Bip]Y[NMeA][dL][Dab][Cha]V[Orn]C[AEEA][Aun]-OH; thioether N-14), the IC50 was 36.5 nM.

Turning to `Cc1cccc(C[C@@H]2NC(=O)[C@H](CC(=O)O)NC(=O)[C@H](Cc3ccc(OCC(=O)O)cc3)NC(=O)[C@H](CN)NC(=O)CSC[C@@H](C(=O)NCCCCCCCCCCC(=O)O)NC(=O)[C@H](CCCN)NC(=O)[C@H](C(C)C)NC(=O)[C@H](CC3CCCCC3)NC(=O)[C@H](CCN)NC(=O)[C@@H](CC(C)C)NC(=O)[C@H](C)N(C)C(=O)[C@H](Cc3ccc(O)cc3)NC(=O)[C@H](Cc3ccc(-c4ccccc4)cc3)NC(=O)[C@H](Cc3ccc(O)cc3)NC2=O)c1` [Example 1318] ({CH2CO}-[Dap]Y(Carboxymethyl)D[Phe(3-Me)]Y[Bip]Y[NMeA][dL][Dab][Cha]V[Orn]C[Aun]-OH; thioether N-14), the concentration for half-maximal inhibition (IC50) turned out to be 59.8 nM.

In the case of `Cc1cccc(C[C@@H]2NC(=O)[C@H](CC(=O)O)NC(=O)[C@H](Cc3ccc(OCC(=O)O)cc3)NC(=O)[C@H](CN)NC(=O)CSC[C@@H](C(=O)NCCCCCCCCCCC(=O)O)NC(=O)[C@H](CCCN)NC(=O)[C@H](C(C)C)NC(=O)[C@H](CC3CCCCC3)NC(=O)[C@H](CCN)NC(=O)[C@@H](CC(C)C)NC(=O)[C@H](C)N(C)C(=O)[C@H](Cc3ccc(O)cc3)NC(=O)[C@H](Cc3ccc(-c4ccccc4)cc3)NC(=O)[C@H](C(C)C)NC2=O)c1` [Example 1319] ({CH2CO}-[Dap]Y(Carboxymethyl)D[Phe(3-Me)]V[Bip]Y[NMeA][dL][Dab][Cha]V[Orn]C[Aun]-OH; thioether N-14), the IC50 is 42 nM.

On to `Cc1cccc(C[C@@H]2NC(=O)[C@H](CC(=O)O)NC(=O)[C@H](Cc3ccc(OCC(=O)O)cc3)NC(=O)[C@H](CN)NC(=O)CSC[C@@H](C(=O)N[C@@H](CCN)C(=O)NCCCCCCCCCCC(=O)O)NC(=O)[C@H]([C@@H](C)O)NC(=O)[C@H](C(C)C)NC(=O)[C@H](CC3CCCCC3)NC(=O)[C@H](CCN)NC(=O)[C@@H](CC(C)C)NC(=O)[C@H](C)N(C)C(=O)[C@H](Cc3ccc(O)cc3)NC(=O)[C@H](Cc3ccc(-c4ccccc4)cc3)NC(=O)[C@H](C(C)C)NC2=O)c1` [Example 1320] ({CH2CO}-[Dap]Y(Carboxymethyl)D[Phe(3-Me)]V[Bip]Y[NMeA][dL][Dab][Cha]VTC[Dab][Aun]-OH; thioether N-14), for which the IC50 came to 15 nM.

`Cc1cccc(C[C@@H]2NC(=O)[C@H](CC(=O)O)NC(=O)[C@H](Cc3ccc(O)cc3)NC(=O)[C@H](CC(N)=O)NC(=O)CSC[C@@H](C(=O)N[C@@H](CCN)C(=O)NCCCCCCCCCCC(=O)O)NC(=O)[C@H]([C@@H](C)O)NC(=O)[C@H](C(C)C)NC(=O)[C@H](CC3CCCCC3)NC(=O)[C@H](CCN)NC(=O)[C@@H](CC(C)C)NC(=O)[C@H](C)N(C)C(=O)[C@H](Cc3ccc(O)cc3)NC(=O)[C@H](Cc3ccc(-c4ccccc4)cc3)NC(=O)[C@H](C(C)C)NC2=O)c1` [Example 1321] ({CH2CO}-NYD[Phe(3-Me)]V[Bip]Y[NMeA][dL][Dab][Cha]VTC[Dab][Aun]-OH; thioether N-14): the IC50 is 142 nM.

Take `Cc1cccc(C[C@@H]2NC(=O)[C@H](CC(=O)O)NC(=O)[C@H](Cc3ccc(OCC(=O)O)cc3)NC(=O)[C@H](CC(N)=O)NC(=O)CSC[C@@H](C(=O)N[C@@H](CCN)C(=O)NCCCCCCCCCCC(=O)O)NC(=O)[C@H]([C@@H](C)O)NC(=O)[C@H](C(C)C)NC(=O)[C@H](CC3CCCCC3)NC(=O)[C@H](CCN)NC(=O)[C@@H](CC(C)C)NC(=O)[C@H](C)N(C)C(=O)[C@H](Cc3ccc(O)cc3)NC(=O)[C@H](Cc3ccc(-c4ccccc4)cc3)NC(=O)[C@H](C(C)C)NC2=O)c1` [Example 1322] ({CH2CO}-NY(Carboxymethyl)D[Phe(3-Me)]V[Bip]Y[NMeA][dL][Dab][Cha]VTC[Dab][Aun]-OH; thioether N-14): the IC50 turned out to be 19.7 nM.

On to `Cc1cccc(C[C@@H]2NC(=O)[C@H](CC(=O)O)NC(=O)[C@H](Cc3cccnc3)NC(=O)[C@H](CC(N)=O)NC(=O)CSC[C@@H](C(=O)N[C@@H](CCN)C(=O)NCCCCCCCCCCC(=O)O)NC(=O)[C@H]([C@@H](C)O)NC(=O)[C@H](C(C)C)NC(=O)[C@H](CC3CCCCC3)NC(=O)[C@H](CCN)NC(=O)[C@@H](CC(C)C)NC(=O)[C@H](C)N(C)C(=O)[C@H](Cc3ccc(O)cc3)NC(=O)[C@H](Cc3ccc(-c4ccccc4)cc3)NC(=O)[C@H](C(C)C)NC2=O)c1` [Example 1323] ({CH2CO}-N[3Pal]D[Phe(3-Me)]V[Bip]Y[NMeA][dL][Dab][Cha]VTC[Dab][Aun]-OH; thioether N-14), for which the IC50 turned out to be 99.4 nM.

Regarding `CC(C)C[C@H]1NC(=O)[C@H](C)N(C)C(=O)[C@H](Cc2ccc(O)cc2)NC(=O)[C@H](Cc2ccc(-c3ccccc3)cc2)NC(=O)[C@H](C(C)C)NC(=O)[C@H](Cc2c[nH]c3ccccc23)NC(=O)[C@H](CC(=O)O)NC(=O)[C@H](Cc2ccc(OCC(=O)O)cc2)NC(=O)[C@H](Cc2ccncc2)NC(=O)CSC[C@@H](C(=O)N[C@@H](CCN)C(=O)NCCCCCCCCCCC(=O)O)NC(=O)[C@H]([C@@H](C)O)NC(=O)[C@H](C(C)C)NC(=O)[C@H](CC2CCCCC2)NC(=O)[C@H](CCN)NC1=O` [Example 1324] ({CH2CO}-[4Pal]Y(Carboxymethyl)DWV[Bip]Y[NMeA][dL][Dab][Cha]VTC[Dab][Aun]-OH; thioether N-14), the 50% inhibitory concentration (IC50) was 34.2 nM.

As to `CC(C)C[C@@H]1NC(=O)[C@H](Cc2c[nH]c3ccccc23)NC(=O)[C@H](CC(=O)O)NC(=O)[C@H](Cc2ccncc2)NC(=O)[C@H](Cc2ccc(OCC(=O)O)cc2)NC(=O)CSC[C@@H](C(=O)N[C@@H](CCN)C(=O)NCCCCCCCCCCC(=O)O)NC(=O)[C@H]([C@@H](C)O)NC(=O)[C@H](C(C)C)NC(=O)[C@H](CC2CCCCC2)NC(=O)[C@H](CCN)NC(=O)[C@@H](CC(C)C)NC(=O)[C@H](C)N(C)C(=O)[C@H](Cc2ccc(O)cc2)NC(=O)[C@H](Cc2ccc(-c3ccccc3)cc2)NC1=O` [Example 1325] ({CH2CO}-Y(Carboxymethyl)[4Pal]DWL[Bip]Y[NMeA][dL][Dab][Cha]VTC[Dab][Aun]-OH; thioether N-14), the IC50 is 28.1 nM.

Take `CC(C)C[C@@H]1NC(=O)[C@H](Cc2c[nH]c3ccccc23)NC(=O)[C@H](CC(=O)O)NC(=O)[C@H](Cc2ccc(C(=O)O)cc2)NC(=O)[C@H](Cc2ccc(OCC(=O)O)cc2)NC(=O)CSC[C@@H](C(=O)N[C@@H](CCN)C(=O)NCCCCCCCCCCC(=O)O)NC(=O)[C@H]([C@@H](C)O)NC(=O)[C@H](C(C)C)NC(=O)[C@H](CC2CCCCC2)NC(=O)[C@H](CCN)NC(=O)[C@@H](CC(C)C)NC(=O)[C@H](C)N(C)C(=O)[C@H](C(C)C)NC(=O)[C@H](Cc2ccc(-c3ccccc3)cc2)NC1=O` [Example 1326] ({CH2CO}-Y(Carboxymethyl)[Phe(4-COOH)]DWL[Bip]V[NMeA][dL][Dab][Cha]VTC[Dab][Aun]-OH; thioether N-14): the IC50 was determined as 19.8 nM.

With `CC(C)C[C@@H]1NC(=O)[C@H](Cc2c[nH]c3ccccc23)NC(=O)[C@H](CC(=O)O)NC(=O)[C@H](Cc2ccc(C(=O)O)cc2)NC(=O)[C@H](Cc2ccc(OCC(=O)O)cc2)NC(=O)CSC[C@@H](C(=O)N[C@@H](CCCN)C(=O)NCCCCCCCCCCC(=O)O)NC(=O)[C@H](CCC(=O)O)NC(=O)[C@H](C(C)C)NC(=O)[C@H](CC2CCCCC2)NC(=O)[C@H](CCN)NC(=O)[C@@H](CC(C)C)NC(=O)[C@H](C)N(C)C(=O)[C@H](C(C)C)NC(=O)[C@H](Cc2ccc(-c3ccccc3)cc2)NC1=O` [Example 1328] ({CH2CO}-Y(Carboxymethyl)[Phe(4-COOH)]DWL[Bip]V[NMeA][dL][Dab][Cha]VEC[Orn][Aun]-OH; thioether N-14), the IC50 was 24 nM.

Regarding `CC(C)C[C@@H]1NC(=O)[C@H](Cc2c[nH]c3ccccc23)NC(=O)[C@H](CC(=O)O)NC(=O)[C@H](Cc2ccncc2)NC(=O)[C@H](Cc2ccc(OCC(=O)O)cc2)NC(=O)CSC[C@@H](C(=O)N[C@@H](CCN)C(=O)NCCCCCCCCCCC(=O)O)NC(=O)[C@H]([C@@H](C)O)NC(=O)[C@H](C(C)C)NC(=O)[C@H](CC2CCCCC2)NC(=O)[C@H](CCN)NC(=O)[C@@H](CC(C)C)NC(=O)[C@H](C)N(C)C(=O)[C@H](C(C)C)NC(=O)[C@H](Cc2ccc(-c3ccccc3)cc2)NC1=O` [Example 1329] ({CH2CO}-Y(Carboxymethyl)[4Pal]DWL[Bip]V[NMeA][dL][Dab][Cha]VTC[Dab][Aun]-OH; thioether N-14), the IC50 stood at 15.3 nM.
